# Reference: patent US20080166805A1, “Culturing human cells and tissues in an N-glycolylneuraminic acid-free environment” (The Regents of the University of California, priority 2005, published 2008)
# Columns and labels:
# Format in all cases: cell-based
# [1] = tested on: human neuroblastoma cells; test: Neu5Gc feeding experiment, human neuroblastoma cells; settings: neuroblastoma cells fed 3 mM for 3 days
# Method: (§1) Neu5Gc and ManNGc Feeding Experiment—Neu5Ac, Neu5Gc or ManNGc were dried, dissolved in the appropriate media supplemented with heat-inactivated human serum, sterilized using a Spin-X® (Corning Inc., Corning, N.Y.) and then added to the cells. The pH of the media containing Sia was adjusted to neutrality using sterilized 1M NaOH before starting the feeding experiment. Cells were cultured in the presence of up to 3 mM free Sia or ManNGc for 1 or 3 days at 37° C. At the end of the feeding, cells were washed with cold PBS, harvested either by scraping or with 2 mM EDTA for fibroblasts, and washed again with cold PBS prior to fractionation.
# Fractionation of the Labeled Cells—Washed cell pellets were sonicated into 500 μL of 20 mM sodium phosphate buffer or 20 mM Tris-HCl, pH 7.5, using 4×15 second pulses of a sonicator cell disrupter, model Some Dismembrator (Fisher Scientific, Hampton, N.J.) at a probe setting of 3. […] The pellet contained <5% of the incorporated sialic acid as determined using a radioactive tracer (data not shown.) The supernatant was therefore considered as the “total homogenate” fraction. A portion (20%) of the “total homogenate” fraction was taken for protein quantification and Sia analysis by DMB derivatization and HPLC analysis (as discussed below.) The remainder was centrifuged at 100,000×g for 1 h. […]
# [2] = tested on: lysosomal sialic acid transporter mutant human fibroblasts (GM08496); test: Neu5Gc/ManNGc feeding, lysosomal sialic acid transporter mutant fibroblasts GM08496; settings: GM08496 (Salla disease) fibroblasts fed 3 mM for 3 days
# Source text: (§2) Cell Lines—Caco-2 cells (human epithelial cells isolated from a primary colon carcinoma), normal human skin fibroblasts (CCD-919-SK) and chinese hamster ovary (CHO-K1) cells were purchased from ATCC (Manassas, Va.) Mutant human skin fibroblasts (GM05520, GM08496 and GM01718) were obtained from the Coriell Institute for Medical Research (Camden, N.J.) Chimpanzee Fred and human […] EBV-transformed lymphoblasts were a gift from Dr. Peter Parham, Stanford University, CA. […]
# (§3) Fractionation of the Labeled Cells—Washed cell pellets were sonicated into 500 μL of 20 mM sodium phosphate buffer or 20 mM Tris-HCl, pH 7.5, using 4×15 second pulses of a sonicator cell disrupter, model Some Dismembrator (Fisher Scientific, Hampton, N.J.) at a probe setting of 3. […] The pellet contained <5% of the incorporated sialic acid as determined using a radioactive tracer (data not shown.) The supernatant was therefore considered as the “total homogenate” fraction. A portion (20%) of the “total homogenate” fraction was taken for protein quantification and Sia analysis by DMB derivatization and HPLC analysis (as discussed below.) The remainder was centrifuged at 100,000×g for 1 h. […] All the Sias in these fractions were released with mild acid hydrolysis if necessary and then analyzed by HPLC after DMB derivatization. […]
# [3] = tested on: normal human skin fibroblasts (WT); test: Neu5Gc/ManNGc feeding experiment, normal human skin fibroblasts
# Method: (§4) Cell Culture—Caco-2 cells were propagated in alpha-MEM containing GLUTAMAX™ (Invitrogen, San Diego, Calif.) and a mixture of ribonucleosides and deoxyribonucleosides (Gibco/Invitrogen, San Diego, Calif.) supplemented with 20% FCS. All the fibroblast cell lines and CHO-K1 cells were cultured in the same media supplemented respectively with 15% non-heat inactivated FCS or 10% heat inactivated FCS. Chimpanzee Fred and human […] EBV-transformed lymphoblasts were cultured in RPMI-1640 (Gibco/Invitrogen, San Diego, Calif.) supplemented with 10% heat inactivated FCS or 15% human serum. All of the cultures were maintained at 37° C., 5% CO2 atmosphere. In order to deplete any remaining Neu5Gc from FCS, the cells were split and cultured prior to Neu5Gc feeding experiments for at least 4 days in alpha-MEM supplemented with an adequate percentage of heat-inactivated premium human serum instead of FCS. The cells were then maintained under the same conditions during the whole feeding experiment. The human serum was heat inactivated at 56° C. for 30 min. before use.
# as §1
# Fractionation of the Labeled Cells—Washed cell pellets were sonicated into 500 μL of 20 mM sodium phosphate buffer or 20 mM Tris-HCl, pH 7.5, using 4×15 second pulses of a sonicator cell disrupter, model Some Dismembrator (Fisher Scientific, Hampton, N.J.) at a probe setting of 3. The sonicate was centrifuged at 75×g for 15 min., and the pellet obtained consisted primarily of nuclei and unbroken cells. The pellet contained <5% of the incorporated sialic acid as determined using a radioactive tracer (data not shown.) The supernatant was therefore considered as the “total homogenate” fraction. A portion (20%) of the “total homogenate” fraction was taken for protein quantification and Sia analysis by DMB derivatization and HPLC analysis (as discussed below.) The remainder was centrifuged at 100,000×g for 1 h. The resulting pellet, called the “membrane” fraction, was then resuspended by sonication (15 sec.) in 200 μl of sodium acetate buffer, pH 5.5. The 100,000×g supernatant, called the “soluble” fraction was adjusted to 90% ethanol using absolute ice-cold ethanol, and placed overnight at −20° C. The flocculant precipitate, which represents the “soluble protein” fraction, was washed 3 times with 90% ice-cold ethanol and then resuspended in 200 μl of water. […] All the Sias in these fractions were released with mild acid hydrolysis if necessary and then analyzed by HPLC after DMB derivatization. Protein quantification was performed on the total homogenate, membrane and soluble protein fractions by using the BCA protein assay kit from Pierce (Rockford, Ill.) In some experiments, the resulting data obtained for the Sia bound to the membrane fraction and to the soluble proteins were pooled and presented here as a High Molecular Weight (HMW) fraction. […]
# Caco-2 cells = test: Neu5Gc and ManNGc feeding experiment, Caco-2 cells (fractionation, DMB-HPLC); settings: Caco-2 cells fed 3 mM for 3 days, grown in human serum
# Method: as §4, with “use. […]” for “use.”
# as §3
# [4] = tested on: lysosomal sialic acid transporter mutant human fibroblasts (GM05520); test: Neu5Gc/ManNGc feeding, lysosomal sialic acid transporter mutant fibroblasts GM05520; settings: GM05520 (ISSD) fibroblasts fed 3 mM for 3 days
# Source text: as §2, §3
# [5] = normal fibroblasts fed 3 mM for 3 days
smiles,measurement,setting,value
"O=C(CO)N[C@H]1[C@H]([C@H](O)[C@H](O)CO)OC(O)(C(=O)O)C[C@@H]1O (stereo partly shown) [Neu5Gc, N-glycolylneuraminic acid]",Neu5Gc incorporation efficiency,[1],efficiency comparable to the Caco-2 cells
same,percent of Neu5Gc in membrane-bound glycoconjugates,[2],16%
same,"Neu5Gc as percent of total Sia, HMW fraction",[3]; [5],39%
same,"Neu5Gc as percent of total Sia, TH fraction",[3]; [5],28%
same,"Neu5Gc as percent of total Sia, cytosolic LMW fraction",[3]; [5],41%
same,percent of Neu5Gc incorporation into membrane-bound glycoconjugates,[3]; normal wild-type (WT) fibroblasts fed 3 mM for 3 days,37%
same,"Neu5Gc as percent of total Sia, cytosolic low molecular weight (LMW) fraction",Caco-2 cells,70%
same,"Neu5Gc as percent of total Sia, high molecular weight fraction (HMW)",Caco-2 cells,46%
same,"Neu5Gc as percent of total Sia, total homogenate (TH)",Caco-2 cells,58%
same,percent of Neu5Gc in membrane-bound glycoconjugates,[4],5%
